How the values were obtained:
[1] = test system: bladder overactivity induced by intravesical administration of acetic acid solution; assay: Cystometrograms, acute bladder irritation by acetic acid infusion, i.v. drug; assay type: in vivo, rats; conditions: for intercontraction interval (ICI), % of the control value: 0.25% acetic acid infusion, vehicle 42.9%; for pressure threshold (PT), % of the control value: vehicle 87.1%
Procedure: (§1) Cystometrograms (CMGs) were performed under urethane anesthesia (1 g/kg s.c.) using a catheter inserted into the bladder through the bladder dome via a midline abdominal incision. Saline was infused at a rate of 0.04 ml/min to elicit repetitive bladder contractions. Effects of intravenous (i.v.) injection of Compound 3a on bladder overactivity induced by either intravesical administration of acetic acid solution or one day treatment with cyclophosphamide were investigated. […] Thus, these compounds can be effective for the treatment of pain and urinary frequency symptoms in patients with painful bladder syndrome/interstitial cystitis.
Saline infusion was performed for 1 to 2 hours prior to drug (or vehicle) administration and control CMGs were recorded. Compound 3a (aka CT-3 or IP-751, dissolved in 30% Cremophor EL saline solution; three concentrations of 1, 3, and 10 mg/kg) or vehicle was administrated intravenously when starting infusion of acetic acid solution (0.25%) into the bladder.
Changes in cystometric parameters such as intercontraction intervals (ICIs), maximum voiding pressure (MVP), pressure threshold (PT) and baseline pressure (BP) were evaluated before and after i.v. administration of Compound 3a or vehicle.
In the vehicle group, 0.25% acetic acid infusion induced significant bladder overactivity, as evidenced by a reduction in ICIs to 42.9% of the control value.

[2] = Encapsulation into liposomes / formulation stability; assay type: physicochemical
Procedure: (§2) See, FIGS. 9B and 9C, respectively. Each group consisted of a minimum of seven subjects, except for those of a preliminary dose response study, where two subjects were used in each group. The preliminary dose response study indicated an optimal Compound 3a dose of 0.8 mg/ml. See, FIG. 9A. In these experiments, 1.6 mg/ml was highest concentration of Compound 3a encapsulated into liposomes; higher concentrations apparently compromised formulation stability.

[3] = test system: cyclophosphamide-induced bladder overactivity; assay: Cystometrograms, subacute bladder irritation by cyclophosphamide, i.v. drug; assay type: in vivo, rats
Procedure: as §1
One day after intraperitoneal injection of cyclophosphamide (CYP, 150 mg/kg), control CMGs were recorded for 1 to 2 hour prior to i.v. administration of Compound 3a or vehicle. See, example i, above. Following administration of Compound 3a, changes in cystometric parameters such as ICIs, MVP, PT and BP were recorded to evaluate the effects of Compound 3a on cyclophosphamide-induced bladder overactivity.
Bladder overactivity indicated by significant ICI reductions was observed one day after CYP injection.

[4] = test system: bladder hyperactivity induced by infusing acetic acid; assay: Instillation of liposomal drug 24 h / 48 h before acetic acid-induced bladder hyperactivity (CMG); assay type: in vivo, rats; conditions: intravesical, two subjects per group
Procedure: Similarly, instillation of liposomal-Compound 3a was first conducted. Then, 24 hours and 48 hours after instillation, under urethane anesthesia, bladder hyperactivity was induced by infusing acetic acid at the concentration of 0.125% and 025%. Prior to acetic acid infusion, baseline CMG was conducted by saline infusion (0.04 ml/min) to measure intercontraction interval (ICI). A percentage reduction in ICI was measured following acetic acid infusion as an indicator of bladder irritation.
as §2

[5] = 10 mg/kg, worded as 'expected to increase'
[6] = CYP-treated rats, after administration

| Compound | intercontraction interval (ICI), % of the control value ([1]; 1 mg/kg i.v.) | pressure threshold (PT), % of the control value ([1]; 1 mg/kg i.v.) | intercontraction interval (ICI), % of the control value ([1]; 3 mg/kg i.v.) | pressure threshold (PT), % of the control value ([1]; 3 mg/kg i.v.) | intercontraction interval (ICI), % of the control value ([1]; 10 mg/kg i.v., P<0.05, n=6) | acetic acid-induced bladder overactivity ([1]; 10 mg/kg i.v., without affecting bladder contractions during voiding) | pressure threshold (PT), % of the control value [1, 5] | baseline pressure (BP), change ([1]; i.v., acetic acid infusion) | maximum voiding pressure (MVP), change ([1]; i.v., acetic acid infusion) | highest concentration encapsulated into liposomes (higher concentrations compromised formulation stability) [2] | CYP-induced bladder overactivity ([3]; 10 mg/kg i.v., CYP-treated rats) | intercontraction interval (ICI) after drug ([3]; 10 mg/kg i.v., one day after CYP 150 mg/kg i.p., control value 3.65 min, vehicle 3.89 vs. 3.94 min) | baseline pressure (BP), change [3, 6] | maximum voiding pressure (MVP), change [3, 6] | pressure threshold (PT), change [3, 6] | optimal dose in preliminary dose response study [4] |
| --- | --- | --- | --- | --- | --- | --- | --- | --- | --- | --- | --- | --- | --- | --- | --- | --- |
| CCCCCCC(C)(C)c1cc(O)c2c(c1)OC(C)(C)[C@@H]1CC=C(C(=O)O)CC21 (stereo partly drawn) [Compound 3a, (6aR,10aR)-Δ^8-THC-DMH-11-oic Acid] | 45.2 % of the control value | 74.1 % of the control value | 51.1 % of the control value | 94.1 % of the control value | 112.4 % of the control value | significantly suppressed | 127.2 % of the control value | No significant changes | No significant changes | 1.6 mg/mL | significantly suppressed | 5.14 min | No significant changes | No significant changes | No significant changes | 0.8 mg/mL |
| CCCCCCC(C)(C)c1cc(OC(C)=O)c2c(c1)OC(C)(C)[C@@H]1CC=C(C(=O)O)C[C@@H]21 [Compound 3c, (6aR,10aR)-Δ^8-THC-DMH-11-oic Acid Acetate] |  |  |  |  |  |  | 127.2 % of the control value |  |  |  |  |  |  |  |  |  |

From patent US8637087B2, “Treatment of interstitial cystitis using (6aR, 10aR)-Δ8-tetrahydrocannabinol-11-OIC acids” (JB Therapeutics Inc., priority 2004, dated 2014)
